These results are taken from PubChem BioAssay (NCI).

Holding throughout (experiment): inhibition of tumour cell growth, NCI panel, 48 h
The test system of experiment [1] is M14 melanoma.
The test system of experiment [2] is HCT-15 colon.
The subject of experiment [3] is HS 578T breast.
Experiment [4] deals with HT29 colon.
The test system of experiment [5] is RXF 393 renal.
For experiment [6], the system named is SK-MEL-28 melanoma.
Experiment [7] has as its system UACC-62 melanoma.
For experiment [8], the system named is PC-3 prostate.
In experiment [9] the test system is HCC-2998 colon.
For experiment [10], the system named is MOLT-4 leukemia.

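Compound exposure: 48 hours, 5 concentrations, 96-well plates. TGI: concentration producing complete growth inhibition.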

Regarding `CC(=O)NC1C(OCc2ccccc2)OC(CO)C(O)C1OCC(=O)N[C@@H](C)C(=O)N[C@H](CCC(=O)NCCCNc1ccc([N+](=O)[O-])c2[nH]c3ccccc3c(=O)c12)C(N)=O` (stereo partly drawn), the TGI is > 100 µM in [1]; > 100 µM in [2]; 90.2 µM in experiment [3]; > 100 µM in experiment [4]; > 100 µM in experiment [5]; > 100 µM in experiment [6]. For the same compound, the TGI in [7], in experiment [8] and in experiment [9] was > 100 µM in each case.

Regarding `CC(=O)c1sc2[n+](c1C)C(=O)/C(=C\c1ccccc1Cl)S2`, the TGI in [1] was 40 µM; in experiment [2] it was 27.1 µM; in [3] it was > 100 µM; in experiment [4], 39.2 µM; in experiment [5] it was 47.4 µM; in experiment [6], 31.1 µM. The TGI is 25.8 µM in experiment [7], > 100 µM in [10], 49.9 µM in experiment [8] and 37.6 µM in [9].

For `O=C(Nc1ccc2ccccc2c1)c1cc2cc(CCl)ccc2oc1=O`, the TGI in experiment [1] is > 100 µM; in experiment [2], > 100 µM; in [3], 8.73 µM; in experiment [4] it was > 100 µM; in experiment [5] it was 54.1 µM; in experiment [6], > 100 µM. The TGI in experiment [7], in [10], in experiment [8] and in [9] was > 100 µM each time.

`c1cc2c(cc1C1=NCCN1)c1cc(C3=NCCN3)ccc1n2CC1CCCCC1`: the TGI was > 100 µM in experiment [1]; > 100 µM in [2]; 32 µM in experiment [3]; > 100 µM in [4]; > 100 µM in [5]; 26.7 µM in experiment [6]. Further, the TGI is 34.8 µM in [10] and > 100 µM in experiment [8].

Consider `CCOC(=O)C(C/C=C/CO)N(C)C(=O)OC(C)(C)C` (stereo not drawn), for which the TGI in [1], in [2], in [3], in experiment [4], in experiment [5] and in experiment [6] was > 100 µM throughout. For the same compound, the TGI in [7], in experiment [10] and in experiment [8] was > 100 µM in each case.

On to `O=c1[nH]c2ccc([N+](=O)[O-])cc2nc1/C=C(\O)c1ccccc1`, for which the TGI is > 100 µM in experiment [1]; > 100 µM in experiment [2]; 8.93 µM in experiment [3]; > 100 µM in experiment [4]; 49.8 µM in [5]; > 100 µM in [7]. The TGI in experiment [10], in experiment [8] and in experiment [9] was > 100 µM throughout.

Regarding `CSCCCNC(=O)[C@H](CSC)NC(=O)c1csc(CCNC(=O)[C@@H](NSc2ccccc2[N+](=O)[O-])C(C)O)n1` (stereo partly drawn), the TGI in experiment [1], in [2], in [3], in experiment [4], in [5] and in [6] was > 100 µM each time. Further, the TGI in experiment [7], in experiment [10], in [8] and in experiment [9] was > 100 µM throughout.

For the compound `CCNC(=S)N/N=C(\C)c1cccc(C)n1`, the TGI in [1] was 26 µM; in experiment [2], > 100 µM; in [3] it was > 100 µM; in experiment [4] it was > 100 µM; in experiment [5] it was > 100 µM; in experiment [6], > 100 µM. In addition, the TGI is 41.3 µM in experiment [7], > 100 µM in [10], > 100 µM in [8] and 28.9 µM in experiment [9].

For the compound `Cc1ccc2c(c1C)C(=O)/C(=C/c1cccc(C)c1C(=O)O)C2`, the TGI in experiment [1], in [2], in experiment [3], in experiment [4], in experiment [5] and in experiment [6] was > 100 µM in each case. Also, the TGI in [7], in experiment [10], in experiment [8] and in experiment [9] was > 100 µM each time.

Take `CN(C)CCNC(=O)c1c(O)ccc2c1c1c(n2CCc2ccccc2)C(=O)c2ccccc2C1=O`: the TGI in experiment [1] was found to be 3.47 µM; in [2], 15.6 µM; in [3] it was 27.1 µM; in [4], 19.3 µM; in experiment [5] it was 5.17 µM; in experiment [6] it was 4.57 µM. Further, the TGI came to 5.56 µM in [7], 16.2 µM in experiment [10], 29.1 µM in experiment [8] and 2.96 µM in [9].

For `Nc1cc2c3c(cccc3c1)C(=O)N(c1ccc(OCCN3CCCC3)cc1)C2=O`, the TGI worked out at 51.2 µM in [1]; 26.8 µM in [2]; 55.7 µM in experiment [3]; 29.8 µM in experiment [4]; 32.2 µM in experiment [5]; 47 µM in experiment [6]. The TGI is 33.3 µM in experiment [7], 55.8 µM in experiment [10], 46.5 µM in [8] and 31.3 µM in [9].

On to `COc1cc(/C=N/NC2=NCCN2)ccc1O`, for which the TGI in experiment [1], in experiment [2], in [3], in experiment [4], in experiment [5] and in experiment [6] was > 100 µM each time. Besides, the TGI in [7], in experiment [10], in [8] and in [9] was > 100 µM throughout.

Turning to `COC(=O)C(NC(=O)OC(C)(C)C)P(=O)(OC)OC` (stereo not drawn), the TGI in [1], in [2], in experiment [3], in experiment [4], in experiment [5] and in experiment [6] was > 100 µM throughout. For the same compound, the TGI in experiment [7], in experiment [10] and in [8] was > 100 µM throughout.

Consider `CC(NC(=O)C(Cc1ccc(OC(=O)c2ccccc2)cc1)NC(=O)OC(C)(C)C)C(=O)NCC(=O)NC(Cc1ccccc1)C(=O)NN` (stereo not drawn), for which the TGI in experiment [1], in experiment [2], in [3], in experiment [4], in experiment [5] and in experiment [6] was > 100 µM throughout. The TGI is > 100 µM in experiment [7], 69.4 µM in [10] and > 100 µM in [8].
